Data on one molecule can be found in patent publication US20100130454A1, “9,10-SECOPREGNANE DERIVATIVES AND MEDICINE” (NIPPON SHINYAKU CO., LTD., priority 2004, published 2010).

The test system of data set [1] is human acute myelogenous leukemia cell line HL-60. Nature of the data set: Ability to induce differentiation of HL-60 cells (oxygen radical production after phorbol ester stimulation, WST-1). In kind it is cell-based. Conditions: Homo sapiens, 72 hours incubation, then WST-1 and phorbol 12,13-didecanoate for 4 hours, absorbance at 450, read-out: EC50 (50%-maximal effect concentration), induction of HL-60 differentiation. From the text: It has been known that human acute myelogenous leukemia cell line HL-60 is differentiated into a neutrophil-like cell by active form of vitamin D. Thus, the cells after the differentiation begin to express a surface marker such as CD11 and CD32 and, at the same time, they produce oxygen radical by stimulation with a phorbol ester. In this test, the above-mentioned property was utilized to assess an ability to induce the differentiation of HL-60 cell of the compounds of the present invention mentioned in the Examples and maxacalcitol using as an indicator the amount of oxygen radical produced by stimulation with a phorbol ester whereby a vitamin D3 activity was compared and investigated. When commercially available reagents and kits were used, they were used according to the indications attached thereto.
(Procedure) HL-60 cells (supplied from ATCC) were seeded on a 96-well plate at 5×10^3 cells/100 μL/well and a test compound in two-fold dilution series from 10^−7 M was added to the second to the twelfth rows (maximum concentration: the second row). The first row was used for blank. Maxacalcitol was added to lines A and B and the compound of the present invention was added to lines C and D. After incubation for 72 hours under a moisturized condition in the presence of 5% CO2 at 37° C. using a CO2 incubator, 101 μL of PBS containing 50 mM WST-1 (manufactured by Takara Bio) and 10 μM phorbol 12,13-didecanoate (manufactured by Sigma) were added to each well followed by incubating for 4 hours more. Absorbance (reference wavelength: 655 nM) at 450 nM of a WST-1 formazan dye generated by conversion from WST-1 by oxygen radical produced from the differentiated HL-60 cells was measured by a Benchmark microplate reader (manufactured by BioRad). An absorbance meter control software MPM 3 (manufactured by BioRad) was used and, from a concentration-absorbance curve, the 50%-maximal effect concentration (hereinafter, referred to as “EC50”) of each was determined by a logistic curve regression.

The nature of data set [2]: Action to raise calcium concentration in serum, repeated percutaneous administration. It is filed as in vivo, rat. The following applies: male SD rats, percutaneous 33 μg/200 μL/kg/day once daily for seven days, blood 24 hours after final administration. Here is the method:
A solution of the compound of the present invention mentioned in Example 1 or maxacalcitol in ethanol containing 0.3% of DMSO was repeatedly subjected to a percutaneous administration (33 μg/200 μL/kg/day) for seven days once daily onto the back of male rats (7 weeks of age) of the SD strain. An ethanol solution containing 0.3% of DMSO was administered to a control group. At 24 hours after the final administration, blood was collected and calcium concentration in serum was measured.

The nature of data set [3]: Action to raise the urinary excretion of calcium (1), repeated percutaneous administration. In kind it is in vivo, rat. The following applies: male SD rats, percutaneous 0.33, 3.3 and 33 μg/kg/day once daily for three days, urine collected every 24 hours, compared with control. Here is the method: Open triangles show a control; open squares show the case where 0.33 μg/kg of the compound of Example 1 was administered; open rhombuses show the case where 3.3 μg/kg of the compound of Example 1 was administered; open circles show the case where 33 μg/kg of the compound of Example 1 was administered; black squares show the case where 0.33 μg/kg of maxacalcitol was administered; black rhombuses show the case where 3.3 μg/kg of maxacalcitol was administered; and black circles show the case where 33 μg/kg of maxacalcitol was administered.
A solution of the compound of the present invention mentioned in Example 1 or maxacalcitol in ethanol containing 0.3% of DMSO was repeatedly subjected to a percutaneous administration (0.33, 3.3 and 33 μg/200 μl/kg/day) for three days once daily onto the back of male rats (7 weeks of age) of the SD strain. An ethanol solution containing 0.3% of DMSO was administered to a control group. Calcium concentration in urine collected every 24 hours after administration on each day was measured and multiplied by the amount of urine to calculate the urinary excretion of calcium.

Data set [4] in a line: Action to raise the urinary excretion of calcium (2), intravenous administration. It is filed as in vivo, rat. Conditions: male SD rats, intravenous 22.4 nmol/kg. The protocol:
The compound of the present invention mentioned in Examples 3 or 8, or maxacalcitol (22.4 nmol/kg) was subjected to an intravenous administration to male rats (7 weeks of age) of the SD strain. A physiological saline containing 0.1% of Triton X 100 was administered to a control group. Calcium concentration in urine collected during 24 hours after the administration was measured and urinary excretion of calcium ([calcium concentration in urine]×[amount of urine]) and ratio of urinary excretion of calcium based on the control group ([calcium amount in urine upon administration of the compound to be tested]/[calcium amount in urine in the control group]) were calculated.

Data set [5] in a line: Metabolic rate in human liver microsome. In kind it is in vitro ADME. Conditions: pooled human liver microsome, 1 mg/mL protein, NADPH production system, pH 7.4, 37° C., HPLC. Here is the method: Metabolic rates of the compounds of the present invention mentioned in Examples and maxacalcitol in human liver microsome were compared and investigated.
As to the pooled human liver microsome (HHM-0323), those manufactured by Tissue Transformation Technologies were used. A 0.25M potassium phosphate buffer (pH 7.4) (200 μL), 5 μL of a 250 μM solution of each compound to be tested in DMSO, 50 μL of an NADPH production system (where 20 mg of (β-NADP^+, 70 mg of glucose-6-phosphate, 40 units of glucose-6-phosphate dehydrogenase and 20 mg of magnesium chloride were dissolved in 1 mL of distilled water) and 220 μL of distilled water were added to a microtube and the mixture was subjected to a preincubation for 5 minutes at 37° C. Reaction was started by addition of 25 μL of human liver microsome (final concentration of protein: 1 mg/mL). Incubation was performed for 2, 10, 30 or 60 minutes and the reaction was stopped by addition of 500 μL of acetonitrile. After centrifugation at 13,000 rpm for 5 minutes, each test compound in the supernatant (25 μL) was measured by an HPLC under the following conditions.
Inertsil ODS-3 (4.6×150 mm; GL Science) was used as a column. With regard to mobile phase, a solution A (acetonitrile/0.1% aqueous solution of ammonium acetate=10/90) and a solution B (acetonitrile/0.1% aqueous solution of ammonium acetate=90/10) were used under the linear gradient conditions mentioned in Table 4. Column temperature, flow rate and wavelength for detection were set at 40° C., 1.0 mL/min. and UV 270 nm, respectively.
From the result of measurement by the above-mentioned HPLC, metabolic rates of the test compounds were calculated.

Turning to `C=C1/C(=C\C=C2/CCC[C@]3(C)[C@@H]([C@H](C)OCCC(C)(C)O)CC[C@@H]23)C[C@@H](O)C[C@@H]1O` [Maxacalcitol, (1S,3R,20S)-20-(3-hydroxy-3-methylbutyl-oxy)-9,10-secopregna-5Z,7E,10(19)-trien-1,3-diol, reference compound], the EC50 in data set [1] was 5.4 nM. Besides, in data set [2], the “Calcium Concentration in Serum” value is given as 15.0 mg/dL. Further, in data set [3], the “Urinary excretion of calcium (FIG. 1)” value was “increased in a dose-dependent manner”. The “Urinary excretion of calcium” value in data set [4] (urine collected during 24 hours after administration) amounted to 1.5 mg. In addition, in data set [4] (urine collected during 24 hours, relative to control group), the “Ratio of urinary excretion of calcium (to Control)” value is given as 211%. For the same molecule, the “Metabolic Rate” value in data set [5] is 10 pmol/min/mg.
